What was measured:
Format in all cases: cell-based
HeLa cells [1] = test: Cell death by ATP levels after zVAD-fmk pretreatment; conditions: zVAD-fmk 100 μM pretreatment, 48 or 72 hours
Protocol: The conditions under which cell death occurs in the presence of BH3Is were further evaluated. HeLa cells were pretreated with zVAD-fmk (100 μM) for 1 hour. The purpose of such a treatment was to inhibit the intracellular pathways mediating cell death by apoptosis. Each of the chemical compounds BH3I-1, BH3I-1′, or BH3I-2 was then added to the media of the cells of three separate samples. After 48 or 72 hours of exposure of the cells to zVAD-fmk and the chemical compound, the level of cell death was measured for each sample, by measuring cellular ATP levels.

Jurkat/Bcl-xL cells = test: Cell death in Bcl-xL overexpressing Jurkat cells (MTS, PI, sub-G1, FAM-VAD-fmk); conditions: for sub-G1 DNA: 100 μM BH3I-1 or 30 μM BH3I-2; for dose at which Bcl-xL overexpression gave no protection / doses from which Bcl-xL overexpression provided protection: 48 hr, MTS or PI
Protocol: If BH3Is act through inhibiting the function of anti-apoptotic members of Bcl-2 family, overexpression of Bcl-xL should provide protection against BH3Is, which can be overcome by increased amount of BH3Is. Furthermore, Bcl-xL overexpressing cells. should still undergo apoptosis when treated with a high enough dose of a BH3I to overcome the protection by Bcl-xL. To test this theory, Jurkat/Bcl-xL cells were treated with BH3I-1 and BH3I-2 for 48 hr. Cell death was determined using the MTS assay (FIG. 9A) or PI staining (FIG. 9B). Overexpression of Bcl-xL provided protection for Jurkat cells from lower doses of BH3Is (up to 40 μM of BH3I-2 and up to 100 μM of BH3I-1). Overexpression of Bcl-xL, however, gave no protection after treatment with 80 μM of BH3I-2 or 200 μM of BH3I-1. […] Caspases were activated in Hoechst-positive dying cells following treatment with high doses of BH3Is.

[2] = tested on: HeLa cells that stably overexpress human BCL-XL; test: Cell death by ATP levels in Bcl-xL overexpressing cells after zVAD-fmk pretreatment; conditions: zVAD-fmk 100 μM pretreatment, 48 or 72 hours
Protocol: In another study, HeLa cells that stably overexpress human BCL-XL, and are therefore more resistant to cell death, were pretreated with zVAD-fmk (100 μM) for 1 hour, as described above. Each of the chemical compounds BH3I-1, BH3I-1′, and BH3I-2 from the ChemBridge library was then added to the media of the cells of three separate samples. After 48 or 72 hours of exposure of the cells to zVAD-fmk and the chemical compound, the level of cell death was measured for each sample, by measuring cellular ATP levels.

U-937 cells = test: Cell death by cellular ATP levels; conditions: 48 hours
Protocol: (§1) HeLa cells, U-937 cells, or Jurkat cells, each of which endogenously express both Bak and Bcl-xL, were contacted with each of the BH3I chemical compounds identified above, by adding the compound to the cell culture media. Forty-eight hours after the cells received the chemical compound the cell culture sample was evaluated for the level of cell death that had occurred in response to the chemical compound. The level of cell death was determined by measuring cellular ATP levels, wherein a decrease in cellular ATP levels indicated an increase in cell death. In each cell line, cell death was increased in the sample that received one of the above-identified compounds.

Jurkat cells = test: Cell death by cellular ATP levels; conditions: 48 hours
Protocol: as §1

HeLa cells [3] = test: Cell death by cellular ATP levels; conditions: 48 hours
Protocol: as §1

For `CC(C)C(C(=O)O)N1C(=O)C(=Cc2ccc(Br)cc2)SC1=S` (stereo in doubt) [BH3I-1], the “cellular ATP levels” value (HeLa cells [1]) was “cellular ATP levels decreased”, the “sub-G1 DNA” value (Jurkat/Bcl-xL cells) was “induced the appearance of sub-GI DNA” and the “dose at which Bcl-xL overexpression gave no protection” value (Jurkat/Bcl-xL cells) was 200 µM. For the same compound, the “doses from which Bcl-xL overexpression provided protection” value (Jurkat/Bcl-xL cells) was “up to 100 μM” and the “cellular ATP levels” value [2] was “cellular ATP levels decreased”.
In the case of `O=C(Nc1cc(S(=O)(=O)c2ccc(Cl)cc2)ccc1Cl)c1cc(Cl)cc(Br)c1O` [BH3I-2], the GI50 (U-937 cells) is reported as 10 to 15 µM, the GI50 (Jurkat cells) is reported as 10 to 15 µM and the GI50 (HeLa cells [3]) is reported as 10 to 15 µM. The “cellular ATP levels” value (HeLa cells [1]) was “cellular ATP levels decreased”, the “sub-G1 DNA” value (Jurkat/Bcl-xL cells) was “induced the appearance of sub-GI DNA” and the “dose at which Bcl-xL overexpression gave no protection” value (Jurkat/Bcl-xL cells) was 80 µM. The “doses from which Bcl-xL overexpression provided protection” value (Jurkat/Bcl-xL cells) was “up to 40 μM” and the “cellular ATP levels” value [2] was “cellular ATP levels decreased”.

Reference: patent publication US7390836B2, “Small molecules used to increase cell death” (priority 1999, dated 2008)
